Experimental data from ChEMBL document CHEMBL1145000, “Nitro and amino substitution in the D-ring of 5-(2-dimethylaminoethyl)- 2,3-methylenedioxy-5H-dibenzo[c,h][1,6]naphthyridin-6-ones: effect on topoisomerase-I targeting activity and cytotoxicity” (J Med Chem, 2003).

Assays:
[1] = biological target: T1, DNA topoisomerase 1 (Homo sapiens) (UniProt P11387)
T1 sequence (whole entry): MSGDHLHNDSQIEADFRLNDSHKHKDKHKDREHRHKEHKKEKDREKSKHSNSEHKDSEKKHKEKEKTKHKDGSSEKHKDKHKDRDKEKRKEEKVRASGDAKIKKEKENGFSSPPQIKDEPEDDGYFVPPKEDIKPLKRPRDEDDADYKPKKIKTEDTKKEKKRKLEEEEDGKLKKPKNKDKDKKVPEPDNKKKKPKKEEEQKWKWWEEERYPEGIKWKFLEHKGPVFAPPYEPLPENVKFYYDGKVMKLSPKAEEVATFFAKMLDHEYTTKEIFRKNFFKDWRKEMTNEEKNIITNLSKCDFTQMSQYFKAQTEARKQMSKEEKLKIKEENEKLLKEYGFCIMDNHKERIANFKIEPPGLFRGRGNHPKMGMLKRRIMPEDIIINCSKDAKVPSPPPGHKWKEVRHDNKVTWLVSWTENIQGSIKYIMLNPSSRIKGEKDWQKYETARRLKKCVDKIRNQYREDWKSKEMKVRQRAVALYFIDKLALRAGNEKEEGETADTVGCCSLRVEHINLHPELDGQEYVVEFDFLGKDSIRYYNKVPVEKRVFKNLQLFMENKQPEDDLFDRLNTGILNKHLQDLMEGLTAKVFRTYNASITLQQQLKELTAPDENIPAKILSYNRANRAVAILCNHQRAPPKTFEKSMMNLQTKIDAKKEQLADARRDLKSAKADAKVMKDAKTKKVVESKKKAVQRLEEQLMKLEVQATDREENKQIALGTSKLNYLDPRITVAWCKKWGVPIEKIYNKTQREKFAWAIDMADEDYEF
Description: Effective concentration required to cleave DNA, mediated by human DNA topoisomerase I (TOP1) reported as REC i.e. concentration relative to topotecan (assumed as 1)

RPMI 8402 = assay: Cytotoxic activity against human lymphoblast tumor cell line RPMI8402 after 4 days of treatment; assay type: functional, cell-based; conditions: RPMI 8402, 96 h
[2] = Cytotoxic activity against human lymphoblast tumor cell line CPT-K5 after 4 days of treatment; assay type: functional; conditions: CPT-K5, 96 h

Q: For `CC[C@@]1(O)C(=O)OCc2c1cc1n(c2=O)Cc2cc3ccccc3nc2-1` [CAMPTOTHECIN], which REC [1] is on record?
A: 0.5

Q: And the IC50 (RPMI 8402)?
A: 5 nM

Q: Which IC50 [2] does the source give for `CCCCn1c(=O)c2cc([N+](=O)[O-])ccc2c2cnc3cc4c(cc3c21)OCO4` here?
A: > 10000 nM

Q: What about the REC [1] of the same molecule?
A: 10

Q: And the IC50 (RPMI 8402)?
A: 240 nM

Q: What does the source list for `CN1CCN(c2ccnc3cc4c(cc23)OCO4)C(=O)c2cc([N+](=O)[O-])ccc21`?
A: IC50 [2]: > 10000 nM; REC [1]: 1000; IC50 (RPMI 8402): 3000 nM

Q: Which results are given for `CCCCn1c(=O)c2cc(N)ccc2c2cnc3cc4c(cc3c21)OCO4`?
A: IC50 [2]: > 10000 nM; REC [1]: 500; IC50 (RPMI 8402): 1250 nM

Q: Which IC50 [2] does the source give for `CN(C)CCn1c(=O)c2ccccc2c2cnc3cc4c(cc3c21)OCO4` here?
A: 950 nM

Q: And the REC [1]?
A: 6

Q: What about the IC50 (RPMI 8402) of the same molecule?
A: 60 nM

Q: With `CN(C)CCn1c(=O)c2cccc([N+](=O)[O-])c2c2cnc3cc4c(cc3c21)OCO4` as the molecule, how does the IC50 [2] read?
A: > 10000 nM

Q: And the REC [1]?
A: 1000

Q: And the IC50 (RPMI 8402)?
A: 4800 nM

Q: With `CN(C)CCn1c(=O)c2cccc(N)c2c2cnc3cc4c(cc3c21)OCO4` as the molecule, how does the IC50 [2] read?
A: 3200 nM

Q: What about the REC [1] of the same molecule?
A: 15

Q: What about the IC50 (RPMI 8402) of the same molecule?
A: 340 nM

Q: Which IC50 [2] does the source give for `COc1cc([C@@H]2c3cc4c(cc3[C@@H](O[C@@H]3O[C@@H]5CO[C@@H](c6cccs6)O[C@H]5[C@H](O)[C@H]3O)[C@H]3COC(=O)[C@H]23)OCO4)cc(OC)c1O` [TENIPOSIDE] here?
A: 280 nM

Q: What about the REC [1] of the same molecule?
A: > 1000

Q: With `CC[C@@]1(O)C(=O)OCc2c1cc1n(c2=O)Cc2cc3c(CN(C)C)c(O)ccc3nc2-1` [TOPOTECAN] as the molecule, how does the IC50 [2] read?
A: > 50000 nM

Q: What about the REC [1] of the same molecule?
A: 1

Q: Which results are given for `CN(C)CCn1c(=O)c2ccc(N)cc2c2cnc3cc4c(cc3c21)OCO4`?
A: IC50 [2]: 1000 nM; REC [1]: 0.5; IC50 (RPMI 8402): 25 nM

Q: What does the source list for `CN(C)CCn1c(=O)c2ccc([N+](=O)[O-])cc2c2cnc3cc4c(cc3c21)OCO4`?
A: IC50 [2]: 2800 nM; REC [1]: 0.1; IC50 (RPMI 8402): 2 nM

Q: With `CN(C)CCn1c(=O)c2cc([N+](=O)[O-])ccc2c2cnc3cc4c(cc3c21)OCO4` as the molecule, how does the IC50 [2] read?
A: 330 nM

Q: What about the REC [1] of the same molecule?
A: 0.2

Q: What about the IC50 (RPMI 8402) of the same molecule?
A: 3 nM

Q: With `COc1cc2c(=O)n(CCN(C)C)c3c4cc5c(cc4ncc3c2cc1OC)OCO5` as the molecule, how does the IC50 [2] read?
A: 900 nM

Q: Which results are given for `CN(C)CCn1c(=O)c2cc(N)ccc2c2cnc3cc4c(cc3c21)OCO4`?
A: IC50 [2]: 380 nM; REC [1]: 8; IC50 (RPMI 8402): 80 nM

Q: With `COc1cc2c(=O)n(CCN(C)C)c3c4cc5c(cc4nnc3c2cc1OC)OCO5` as the molecule, how does the IC50 [2] read?
A: 600 nM

Q: What about the REC [1] of the same molecule?
A: 0.3
